Laboratory results as given in patent publication US20090227619A1, “Harmine derivatives, intermediates used in their preparations, preparation processes and use therefo” (priority 2003, published 2009).
Values joined by “and” are separate entries in the source; they are usually repeats but may differ in a detail not shown here. Equal values may be shown once. Read-outs that look alike come from different tables or passages of the source.

Key:
CT-DNA [1] = assay: DNA thermal denaturation, determination of ΔTm; format: binding; details: 20 uM compound, Tm of CT-DNA alone 61° C.
Description: Experiments were carried out in PE buffer (1 mM Na2HPO4, 0.1 mM EDTA, pH 7.6) in a thermostatically controlled cell hold, and the quartz cuvette (1 cm path length) was heated by circulating water at a heating rate of 0.5° C./min from 25 to 95° C. Amsacrine and Doxorubicin Hydrochloride were used as standards. In all cases, the concentration of CT-DNA was 15 ug/ml. The ‘melting’ temperature Tm was taken as the mid-point of the hyperchromic transition.
ΔTm=Tm^drug-DNA complex−Tm^DNA alone
The ΔTm of each compound was calculated, Experiments were repeated three times, and an average value was calculated.

CT-DNA [2] = assay: UV absorption spectrum method with CT-DNA; format: binding; details: CT-DNA 40 ug/ml, compound 20 uM, 37° C. for 2 h, OD at 260 nm
Description: Compounds to be tested (20 uM) were added into the PE buffer solution, and its scan curve was identified by the spectrograph at a wavelength of from 200 to 400 nm. CT-DNA (40 ug/ml) and compounds to be tested (20 uM) were added into the PE buffer solution. The mixture was cultured at 37° C. for 2 h, and its scan curve was identified by the UV spectrograph at a wavelength of from 200 to 400 nm. […] After that, the OD value at 260 nm of the scan curve of the medicaments tested and that of the CT-DNA mixture OD value at 260 nm of the scan curve were calculated and compared to determine the influences of the medicaments tested on the UV absorption spectrum of the DNA molecules.

HepG2 = assay: In vitro cytotoxicity, IC50 by MTT method, HepG2; format: cell-based, human
Summary of the method: (§1)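 MTT viability, 48 h exposure: cells 10^5/ml in RPMI1640 + 10% FBS, 37 °C/5% CO2; MTT 4 h, DMSO solubilisation, A490.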

PLA-801 = assay: In vitro cytotoxicity, IC50 by MTT method, PLA-801; format: cell-based
Summary of the method: as §1

Bel-7402 = assay: In vitro cytotoxicity, IC50 by MTT method, Bel-7402; format: cell-based
Summary of the method: as §1

BGC-823 = assay: In vitro cytotoxicity, IC50 by MTT method, BGC-823; format: cell-based
Summary of the method: as §1

Hela = assay: In vitro cytotoxicity, IC50 by MTT method, Hela; format: cell-based
Summary of the method: as §1

Lovo = assay: In vitro cytotoxicity, IC50 by MTT method, Lovo; format: cell-based
Summary of the method: as §1

NIH3T3 = assay: In vitro cytotoxicity, IC50 by MTT method, NIH3T3; format: cell-based
Summary of the method: as §1

[3] = CT-DNA 15 ug/ml, PE buffer pH 7.6
[4] = Homo sapiens, HepG2 cell strain, read-out: IC50 HepG2
[5] = PLA-801 cell strain, read-out: IC50 PLA-801
[6] = Homo sapiens, Bel-7402, Bel7402 cell strain, read-out: IC50 Bel7402
[7] = Homo sapiens, BGC-823, BGC823 cell strain, read-out: IC50 BGC823
[8] = Homo sapiens, Hela cell strain, read-out: IC50 Hela
[9] = Homo sapiens, Lovo cell strain, read-out: IC50 Lovo
[10] = Mus musculus, NIH3T3 cell strain, read-out: IC50 NIH3T3
[11] = Homo sapiens, HepG2, MTT, read-out: IC50
[12] = Homo sapiens, Bel-7402, BeI7402, MTT, read-out: IC50
[13] = Homo sapiens, BGC-823, BGC823, MTT, read-out: IC50
[14] = Homo sapiens, Hela, MTT, read-out: IC50
[15] = Homo sapiens, Lovo, MTT, read-out: IC50
[16] = Mus musculus, NIH3T3, MTT, read-out: IC50

| melting point | SMILES | ΔTm (CT-DNA [1]; CT-DNA thermal denaturation) | IC50 (HepG2; [4]) | IC50 (PLA-801; [5]) | IC50 (Bel-7402; [6]) | IC50 (BGC-823; [7]) | IC50 (Hela; [8]) | IC50 (Lovo; [9]) | IC50 (NIH3T3; [10]) | other results |
| --- | --- | --- | --- | --- | --- | --- | --- | --- | --- | --- |
| – | CC[C@@]1(O)C(=O)OCc2c1cc1n(c2=O)Cc2cc3ccccc3nc2-1 [camptothecin, reference compound] | −2.5 °C | – | – | – | – | – | – | – | ΔTm (CT-DNA [1]; [3]): −2.5 °C; Influence on the UV absorption of DNA (CT-DNA [2]): increase the UV absorption of DNA |
| 86 to 88 °C | CCCCOC(=O)c1cc2c3ccccc3n(CC)c2cn1 [Compound 39, butyl 9-ethyl-β-carboline-3-carboxylate] | 1.6 °C | 70 µM | 110 µM | 70 µM | 80 µM | 70 µM | 80 µM | 80 µM | – |
| – | c1ccc2c(c1)[nH]c1cnccc12 [Compound 80, β-carboline] | 3.1 °C | – | – | – | – | – | – | – | IC50 (HepG2; Homo sapiens, HepG2, read-out: IC50 HepG2): 230 µM; IC50 (PLA-801; read-out: IC50 PLA-801): 20 µM; IC50 (Bel-7402; Homo sapiens, Bel-7402, read-out: IC50 Bel7402): 380 µM; IC50 (BGC-823; Homo sapiens, BGC-823, read-out: IC50 BGC823): 270 µM; IC50 (Hela; Homo sapiens, HeLa, read-out: IC50 Hela): 350 µM; IC50 (Lovo; Homo sapiens, LoVo, read-out: IC50 Lovo): 40 µM; IC50 (NIH3T3; Mus musculus, NIH3T3, read-out: IC50 NIH3T3): 20 µM |
| – | Cn1c2ccccc2c2ccncc21 [Compound 81, 9-methyl-β-carboline] | 3.3 °C | 100 µM | 220 µM | 300 µM | 200 µM | 330 µM | 220 µM | 120 µM | – |
| 141 to 142 °C | CC(=O)COc1cc2c3ccccc3n(Cc3ccccc3)c2cn1 [Compound 43, 9-benzyl-3-acetylmethoxy-β-carboline] | – | 300 µM | 250 µM | 130 µM | > 3000 µM | 500 µM | > 3000 µM | > 3000 µM | Influence on the UV absorption of DNA (CT-DNA [2]): increase the UV absorption of DNA |
| – | COc1ccc2c3ccnc(C)c3n(Cc3c(F)c(F)c(F)c(F)c3F)c2c1 [Compound 7, 9-(2′,3′,4′,5′,6′-pentafluoro)benzyl-7-methoxy-1-methyl-β-carboline] | 7.5 °C | – | – | – | – | – | – | – | IC50 (HepG2; HepG2, MTT, read-out: IC50): 50 µM; IC50 (PLA-801; PLA-801, MTT, read-out: IC50): 420 µM; IC50 (Bel-7402; BeI7402, MTT, read-out: IC50): 40 µM; IC50 (BGC-823; BGC823, MTT, read-out: IC50): 20 µM; IC50 (Hela; Hela, MTT, read-out: IC50): 40 µM; IC50 (Lovo; Lovo, MTT, read-out: IC50): 40 µM; IC50 (NIH3T3; NIH3T3, MTT, read-out: IC50): 50 µM |
| – | COc1cccc2c1C(=O)c1c(O)c3c(c(O)c1C2=O)C[C@@](O)(C(=O)CO)C[C@@H]3O[C@H]1C[C@H](N)[C@H](O)[C@H](C)O1 [adriamycin, reference compound] | 10.8 °C | – | – | – | – | – | – | – | ΔTm (CT-DNA [1]; [3]): 10.8 °C; Influence on the UV absorption of DNA (CT-DNA [2]): reduce the UV absorption of DNA |
| – | CCn1c2ccccc2c2ccncc21 [Compound 82, 9-ethyl-β-carboline] | 4.2 °C | 170 µM | 130 µM | 310 µM | 170 µM | 230 µM | 160 µM | 100 µM | Influence on the UV absorption of DNA (CT-DNA [2]): reduce the UV absorption of DNA |
| 141 to 142 °C | CCOC(=O)c1cc2c3ccccc3n(C)c2c(C)n1 [Compound 56, ethyl 1,9-dimethyl-β-carboline-3-carboxylate] | – | 100 µM | 140 µM | 490 µM | 130 µM | 110 µM | 50 µM | 60 µM | – |
| 105 to 106 °C and 104 to 105 °C | CCCCOC(=O)c1cc2c3ccccc3n(Cc3ccccc3)c2cn1 [Compound 41, butyl 9-benzyl-β-carboline-3-carboxylate] | – | > 3000 µM | 990 µM | > 3000 µM | > 3000 µM | > 3000 µM | 1080 µM | > 3000 µM | – |
| – | COc1ccc2c3ccnc(C)c3n(CCO)c2c1 [Compound 5, 9-hydroxyethyl-7-methoxy-1-methyl-β-carboline] | 5.9 °C | – | – | – | – | – | – | – | IC50 (HepG2; [11]): 310 µM; IC50 (PLA-801; PLA-801, MTT, read-out: IC50): 80 µM; IC50 (Bel-7402; [12]): 240 µM; IC50 (BGC-823; [13]): 200 µM; IC50 (Hela; [14]): 30 µM; IC50 (Lovo; [15]): 30 µM; IC50 (NIH3T3; [16]): 80 µM |
| 201 to 202 °C | CCn1c2ccccc2c2cc(C(=O)O)ncc21 [Compound 35, 9-ethyl-β-carboline-3-carboxylic acid] | – | 180 µM | 210 µM | 230 µM | 160 µM | 180 µM | 60 µM | 140 µM | – |
| 213 to 214 °C | CCn1c2ccccc2c2cc(NC(=O)OC)ncc21 [Compound 53, 9-ethyl-3-[(methoxycarbonyl)amino]-β-carboline] | – | > 3000 µM | > 3000 µM | > 3000 µM | > 3000 µM | > 3000 µM | > 3000 µM | > 3000 µM | – |
| 108 to 109 °C | CCCc1nc(C(=O)OCC)cc2c3ccccc3n(C)c12 [Compound 68, ethyl 1-propyl-9-methyl-β-carboline-3-carboxylate] | – | 100 µM | 140 µM | 460 µM | 110 µM | 1360 µM | 60 µM | 80 µM | – |
| 169 to 170 °C | CCn1c2ccccc2c2cc(C(=O)OC)nc(-c3ccccc3)c21 [Compound 77, methyl 1-phenyl-9-ethyl-β-carboline-3-carboxylate] | – | > 3000 µM | > 3000 µM | 380 µM | > 3000 µM | 2660 µM | 70 µM | 140 µM | – |
| 209 to 210 °C | CCOC(=O)c1cc2c([nH]c3ccccc32)c(CC)n1 [Compound 12, ethyl 1-ethyl-β-carboline-3-carboxylate] | – | – | – | – | – | – | – | – | IC50 (HepG2; [11]): > 3000 µM; IC50 (PLA-801; PLA-801, MTT, read-out: IC50): > 3000 µM; IC50 (Bel-7402; [12]): > 3000 µM; IC50 (BGC-823; [13]): > 3000 µM; IC50 (Hela; [14]): > 3000 µM; IC50 (Lovo; [15]): 1570 µM; IC50 (NIH3T3; [16]): > 3000 µM |
| 205 to 207 °C | COC(=O)c1cc2c3ccccc3n(C)c2c(-c2ccccc2)n1 [Compound 76, methyl 1-phenyl-9-methyl-β-carboline-3-carboxylate] | – | > 3000 µM | > 3000 µM | 620 µM | > 3000 µM | > 3000 µM | > 3000 µM | > 3000 µM | – |

| SMILES | melting point | ΔTm (CT-DNA [1]; CT-DNA thermal denaturation) | IC50 (HepG2; [4]) | IC50 (PLA-801; [5]) | IC50 (Bel-7402; [6]) | IC50 (BGC-823; [7]) | IC50 (Hela; [8]) | IC50 (Lovo; [9]) | IC50 (NIH3T3; [10]) | other results |
| --- | --- | --- | --- | --- | --- | --- | --- | --- | --- | --- |
| CCCCn1c2ccccc2c2cc(C(=O)OCC)ncc21 [Compound 32, ethyl 9-butyl-β-carboline-3-carboxylate] | 76 to 77 °C | – | 480 µM | 70 µM | 780 µM | 760 µM | 490 µM | 170 µM | 60 µM | – |
| CCCCOC(=O)c1cc2c3ccccc3n(CCCC)c2cn1 [Compound 40, butyl 9-butyl-β-carboline-3-carboxylate] | 94 to 95 °C | – | 1080 µM | 2120 µM | 1080 µM | 70 µM | 950 µM | 40 µM | 50 µM | – |
| CCCCn1c2ccccc2c2cc(C(=O)OC)ncc21 [Compound 28, methyl 9-n-butyl-β-carboline-3-carboxylate] | 181 to 183 °C | – | 460 µM | 140 µM | 430 µM | 310 µM | 290 µM | 170 µM | 80 µM | – |
